Laboratory results: ChEMBL document CHEMBL3603817, “Potent and Selective Inhibitors of Histone Deacetylase-3 Containing Chiral Oxazoline Capping Groups and a N-(2-Aminophenyl)-benzamide Binding Unit” (J Med Chem, 2015)
Values after ≈ are worked out from the molar mass of the structure shown.

Assays:
Assay type in all cases: physicochemical
[1] = Distribution coefficient, log D of the compound by HPLC method; conditions: octanol/water
[2] = Lipophilicity, log P of the compound; conditions: octanol/water
[3] = Solubility by CLND method

SMILES	logD [1]	logP [2]	solubility kinetic [3]
Nc1ccccc1NC(=O)c1ccc(CNC2=N[C@H](Cc3c[nH]cn3)CO2)cc1	0.89	0.93	≥ 158 µg/mL
Nc1ccccc1NC(=O)c1ccc(CNC2=NC(c3ccc(F)cc3)CO2)cc1 (stereo not drawn)		3.97	147 µg/mL (≈ 363 µM)
Nc1ccccc1NC(=O)c1ccc(CNC2=N[C@@H](c3ccc(O)cc3)CO2)cc1	1.74	2.13	≥ 130 µg/mL
Nc1ccccc1NC(=O)c1ccc(CNC2=NC(c3cccc(F)c3)CO2)cc1 (stereo not drawn)	3.42	3.84	≥ 131 µg/mL
Nc1ccccc1NC(=O)c1ccc(CSC2=N[C@@H](Cc3ccccc3)CO2)cc1	5.41	5.67	31 µg/mL (≈ 74.2 µM)
Nc1ccccc1NC(=O)c1ccc(CNC2=N[C@H](c3ccccc3)CO2)cc1	3.09	3.76	≥ 151 µg/mL
Nc1ccccc1NC(=O)c1ccc(CNC2=N[C@@H](c3cccnc3)CO2)cc1	1.71	1.78	≥ 124 µg/mL
Nc1ccccc1NC(=O)c1ccc(CNC2=N[C@@H](c3ccccc3)[C@H](c3ccccc3)O2)cc1	5.01	5.41	6 µg/mL (≈ 13 µM)
Nc1ccccc1NC(=O)c1ccc(CSC2=N[C@@H](c3ccccc3)CN2)cc1	3.49	4.31	116 µg/mL (≈ 288 µM)
Nc1ccccc1NC(=O)c1ccc(CNC2=N[C@@H](c3ccccc3)CN2)cc1	1.92	3.46	≥ 70 µg/mL
Nc1ccccc1NC(=O)c1ccc(CNC2=NC(c3ccccc3)(c3ccccc3)CO2)cc1	5.29	5.59	7 µg/mL (≈ 15.1 µM)
Nc1ccccc1NC(=O)c1ccc(CNC2=N[C@@H](c3ccccc3)CO2)cc1	3.1	3.74	
Nc1ccccc1NC(=O)c1ccc(CNC2=N[C@@H](Cc3c[nH]cn3)CO2)cc1	0.9	0.95	≥ 142 µg/mL
Nc1ccccc1NC(=O)c1ccc(CNC2=NC(c3ccc(C(F)(F)F)cc3)CO2)cc1 (stereo not drawn)	4.54	4.72	8 µg/mL (≈ 17.6 µM)
Nc1ccccc1NC(=O)c1ccc(CNc2nccc(-c3cccnc3)n2)cc1 [MOCETINOSTAT]	2.96	2.96	107 µg/mL (≈ 270 µM)
Nc1ccccc1NC(=O)c1ccc(CNC2=NC[C@H](c3ccccc3)O2)cc1	2.99	3.84	77 µg/mL (≈ 199 µM)
Nc1ccccc1NC(=O)c1ccc(CNC2=N[C@@H](Cc3ccccc3)CO2)cc1	2.86	4.15	≥ 148 µg/mL
Nc1ccccc1NC(=O)c1ccc(CNC2=NC[C@@H](c3ccccc3)O2)cc1	2.79	3.58	98 µg/mL (≈ 254 µM)
Nc1ccccc1NC(=O)c1ccc(CSC2=N[C@@H](c3cccnc3)CO2)cc1	3.19	3.32	108 µg/mL (≈ 267 µM)
Nc1ccccc1NC(=O)c1ccc(CNC2=N[C@H](c3ccccc3)[C@H](c3ccccc3)O2)cc1	4.54	5.01	73 µg/mL (≈ 158 µM)
